This is an account of results in US8563729B2, “Thienopyridone derivatives as AMP-activated protein kinase (AMPK) activators” (Merck Patent GmbH, priority 2008, dated 2013).

The target in experiment [1] is T1, AMPK protein (recombinant α1β1γ2) (Homo sapiens, UniProt Q13131+Q9Y478).
T1 construct: made in house; host or cells: E. coli
Kind of experiment: AMPK enzymatic activity (Delfia, AMARA peptide substrate). Particulars: compound 30 μM vs AMP 30 μM; 125 μM ATP; ratio 90% or higher = direct activator. In kind it is biochemical. The protocol:
The following biological test allows the determination of the efficacy of such compounds of formula (I) onto AMPK protein (recombinant α1β1γ2).
Human recombinant AMPK enzyme was expressed in E. Coli and was reactivated in vitro by LKB1 prior to enzyme activity determination.
AMPK enzyme activities were assayed by using A Delfia technology. AMPK enzyme activities were carried out in microtiter plates (50 mM Hepes buffer, pH 7.4 with 125 μM ATP respectively) in the presence of a synthetic peptide substrate (AMARAASAAALARRR, the “AMARA” peptide) and activators in serial dilutions. Reactions were initiated by the addition of AMPK (50-100 ng). Following mixing, the plates were incubated for 30 min at room temperature. Enzyme activity was assayed by using an anti-phosphoserine antibody to measure the quantity of phosphate incorporated into the AMARAA.
(§1) N°: Number of the molecule
Activity: Ratio between the % of control (basal activity) of compound of formula (I) at 30 μM and the % of control (basal activity) of AMP (natural substrate) at 30 μM.
Compounds of formula (I) in the table II are considered as direct activator of AMPK if the ratio is 90% or higher.

For experiment [2], the system named is H-2 Kb cells. Kind of experiment: Glucose uptake in H-2 Kb cells (in vitro cellular test). In kind it is cell-based, mouse. The note with it: H-2 Kb cells differentiated in muscle, 4 hours incubation, 2-deoxy-D-[1,2 3H] glucose uptake 10 min. Here is the method:
Glucose Uptake in H-2 Kb Cells (In Vitro Cellular Test)
The following cellular test allows the determination of the effect of AMPK activators such as compounds of formula (I) onto glucose uptake in a muscle cellular model.
H-1-2 Kb cells derived from heterozygous H-2 Kb tsA58 transgenic mouse were grown in 24-well in plates coated with matrigel and were cultured at 33° C. for 4 days under permissive conditions, as described previously by Fryer et al. (Diabetes 49 (12): 1978, 2000).
For differentiation in muscle, cells were switched to non-permissive culture conditions (37° C. in the absence of interferon-γ). After 3 days, cells were incubated for 4 hours in DMEM 1 g/l glucose culture medium containing different concentrations of the tested molecules. Then glucose uptake was measured by incubating the cells for 10 min with radiolabelled 2-deoxy-D-[1,2 ^3H] glucose. Glucose uptake was terminated by rapidly washing the plates 2 times with ice-cold NaCl 0.9%. The cells were then solubilized in 0.1N NaOH for 30 min. Radioactivity was determined by liquid scintillation counting.
as §1
Activity (table III): Concentration of compound (I) for a glucose uptake equal or higher to glucose uptake induced by insulin (170 nM)
^++ or **concentration of compound (I) ≦10 micro Molar
^+ or *concentration of compound (I) >10 micro Molar

Each structure is given as a SMILES string.

T1 sequence (Q13131 whole entry): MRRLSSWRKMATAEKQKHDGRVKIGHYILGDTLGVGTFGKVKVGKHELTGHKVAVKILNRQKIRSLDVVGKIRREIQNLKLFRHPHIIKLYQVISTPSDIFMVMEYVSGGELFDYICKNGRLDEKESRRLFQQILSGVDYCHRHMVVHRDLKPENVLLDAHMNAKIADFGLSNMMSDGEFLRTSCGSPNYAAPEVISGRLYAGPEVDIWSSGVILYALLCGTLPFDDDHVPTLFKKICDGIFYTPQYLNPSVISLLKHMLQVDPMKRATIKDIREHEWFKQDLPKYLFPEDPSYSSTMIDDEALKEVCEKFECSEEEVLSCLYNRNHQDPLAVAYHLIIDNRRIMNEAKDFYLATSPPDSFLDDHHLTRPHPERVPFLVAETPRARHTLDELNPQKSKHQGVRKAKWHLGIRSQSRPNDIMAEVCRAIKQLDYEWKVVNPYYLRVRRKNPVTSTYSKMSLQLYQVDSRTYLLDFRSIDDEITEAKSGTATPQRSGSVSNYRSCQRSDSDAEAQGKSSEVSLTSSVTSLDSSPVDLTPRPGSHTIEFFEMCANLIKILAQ
T1 sequence (Q9Y478 whole entry): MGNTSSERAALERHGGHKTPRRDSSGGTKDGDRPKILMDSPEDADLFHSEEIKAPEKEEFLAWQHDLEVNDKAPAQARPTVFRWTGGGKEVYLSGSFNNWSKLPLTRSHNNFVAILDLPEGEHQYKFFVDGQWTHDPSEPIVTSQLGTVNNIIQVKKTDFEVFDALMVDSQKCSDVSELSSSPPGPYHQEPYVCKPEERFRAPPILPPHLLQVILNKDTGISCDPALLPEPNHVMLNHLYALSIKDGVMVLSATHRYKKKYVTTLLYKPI
T1 sequence (Q9UGJ0 whole entry partner): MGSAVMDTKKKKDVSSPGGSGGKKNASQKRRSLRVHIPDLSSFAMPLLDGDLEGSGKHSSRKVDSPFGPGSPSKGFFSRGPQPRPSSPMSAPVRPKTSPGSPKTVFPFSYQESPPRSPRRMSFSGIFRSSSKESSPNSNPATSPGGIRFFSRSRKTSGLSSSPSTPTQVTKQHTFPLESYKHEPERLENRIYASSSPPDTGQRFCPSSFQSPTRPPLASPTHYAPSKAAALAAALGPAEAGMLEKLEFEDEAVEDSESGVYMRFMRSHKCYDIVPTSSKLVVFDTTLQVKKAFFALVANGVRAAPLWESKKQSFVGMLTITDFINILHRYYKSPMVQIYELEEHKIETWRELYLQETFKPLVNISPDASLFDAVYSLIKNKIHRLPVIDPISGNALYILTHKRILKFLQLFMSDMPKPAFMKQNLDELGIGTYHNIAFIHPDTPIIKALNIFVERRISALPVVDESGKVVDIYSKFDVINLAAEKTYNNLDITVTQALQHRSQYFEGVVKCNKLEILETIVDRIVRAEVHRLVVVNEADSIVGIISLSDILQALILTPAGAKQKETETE

For `COc1cccc(-c2csc3[nH]c(=O)c(-c4ccccc4)c(O)c23)c1` [Compound 47], the “activity: Ratio between the % of control (basal activity) of compound of formula (I) at 30 μM and the % of control (basal activity) of AMP at 30 μM” value (“activity: Ratio between the % of control” below) in experiment [1] was determined as 117%. In addition, the “Activity (table III): Concentration of compound (I) for a glucose uptake equal or higher to glucose uptake induced by insulin (170 nM)” value (from here on “Activity (table III): Concentration”) in experiment [2] is recorded as “* (^+ or *concentration of compound (I) >10 micro Molar)”.
Taken in the same sequence, the figures for `COc1ccc(-c2csc3[nH]c(=O)c(-c4ccccc4)c(O)c23)c(F)c1` [Compound 63] were 115% and “* (^+ or *concentration of compound (I) >10 micro Molar)”.
The corresponding values for `Cc1ccc(-c2csc3[nH]c(=O)c(-c4ccccc4)c(O)c23)c(O)c1` [Compound 83, 4-hydroxy-3-(2-hydroxy-4-methylphenyl)-5-phenyl-6,7-dihydro-thieno[2,3-b]pyridin-6-one] are 403% and “* (^+ or *concentration of compound (I) >10 micro Molar)”.
For `O=c1[nH]c2sc(Cl)c(-c3ccc(F)c(F)c3)c2c(O)c1-c1ccccc1` [Compound 100], in experiment [1], the “activity: Ratio between the % of control” value worked out at 103%. Moreover, the “Activity (table III): Concentration” value in experiment [2] is “** (^++ or **concentration of compound (I) ≦10 micro Molar)”.
The corresponding values for `Cc1ccc(-c2c(Cl)sc3[nH]c(=O)c(-c4ccccc4)c(O)c23)c(O)c1` [Compound 104] are 236% and “* (^+ or *concentration of compound (I) >10 micro Molar)”.
As for `O=c1[nH]c2sc(Cl)c(-c3cc(F)ccc3O)c2c(O)c1-c1ccccc1` [Compound 108], the “activity: Ratio between the % of control” value in experiment [1] is 305%. In addition, in experiment [2], the “Activity (table III): Concentration” value is given as “* (^+ or *concentration of compound (I) >10 micro Molar)”.
Regarding `O=c1[nH]c2sc(Cl)c(-c3ccc(O)c(F)c3)c2c(O)c1-c1ccccc1` [Compound 109], the “activity: Ratio between the % of control” value in experiment [1] worked out at 200%. Moreover, the “Activity (table III): Concentration” value in experiment [2] was “** (^++ or **concentration of compound (I) ≦10 micro Molar)”.
For `O=c1[nH]c2sc(Cl)c(-c3ccc(F)cc3O)c2c(O)c1-c1ccccc1` [Compound 111], the “activity: Ratio between the % of control” value in experiment [1] is recorded as 136%. In experiment [2], the “Activity (table III): Concentration” value was “* (^+ or *concentration of compound (I) >10 micro Molar)”.
The corresponding values for `COc1ccc(-c2c(Cl)sc3[nH]c(=O)c(-c4ccccc4)c(O)c23)c(F)c1` [Compound 115] are 118% and “** (^++ or **concentration of compound (I) ≦10 micro Molar)”.
Turning to `O=c1[nH]c2sc(Cl)c(-c3ccccc3F)c2c(O)c1-c1ccccc1` [Compound 119], the “activity: Ratio between the % of control” value in experiment [1] turned out to be 101%. Besides, the “Activity (table III): Concentration” value in experiment [2] is listed as “* (^+ or *concentration of compound (I) >10 micro Molar)”.
As for `O=c1[nH]c2sc(Cl)c(-c3ccccc3O)c2c(O)c1-c1ccccc1` [Compound 121], the “activity: Ratio between the % of control” value in experiment [1] turned out to be 143%. Moreover, the “Activity (table III): Concentration” value in experiment [2] is “* (^+ or *concentration of compound (I) >10 micro Molar)”.
With `Cc1cccc(-c2c(Cl)sc3[nH]c(=O)c(-c4ccccc4)c(O)c23)c1` [Compound 125], the “activity: Ratio between the % of control” value in experiment [1] was determined as 101%. The “Activity (table III): Concentration” value in experiment [2] was “** (^++ or **concentration of compound (I) ≦10 micro Molar)”.
Consider `O=c1[nH]c2sc(Cl)c(-c3cccc(F)c3)c2c(O)c1-c1ccccc1` [Compound 126], for which the “activity: Ratio between the % of control” value in experiment [1] was found to be 98%. Also, the “Activity (table III): Concentration” value in experiment [2] was “* (^+ or *concentration of compound (I) >10 micro Molar)”.
The corresponding values for `CCOc1cccc(-c2c(Cl)sc3[nH]c(=O)c(-c4ccccc4)c(O)c23)c1` [Compound 127] are 122% and “* (^+ or *concentration of compound (I) >10 micro Molar)”.
Regarding `COc1cccc(-c2c(Cl)sc3[nH]c(=O)c(-c4ccccc4)c(O)c23)c1` [Compound 128], the “activity: Ratio between the % of control” value in experiment [1] is 181%. Moreover, the “Activity (table III): Concentration” value in experiment [2] is given as “* (^+ or *concentration of compound (I) >10 micro Molar)”.
As to `COc1ccc(-c2c(Cl)sc3[nH]c(=O)c(-c4cccc(C#N)c4)c(O)c23)cc1` [Compound 129], the “activity: Ratio between the % of control” value in experiment [1] was 102%. For the same compound, the “Activity (table III): Concentration” value in experiment [2] is given as “** (^++ or **concentration of compound (I) ≦10 micro Molar)”.
For `N#Cc1cccc(-c2c(O)c3c(-c4ccc(F)cc4)c(Cl)sc3[nH]c2=O)c1` [Compound 131], the “activity: Ratio between the % of control” value in experiment [1] is reported as 331%. The “Activity (table III): Concentration” value in experiment [2] was “* (^+ or *concentration of compound (I) >10 micro Molar)”.
Consider `O=c1[nH]c2sc(Cl)c(-c3ccc4ccccc4c3O)c2c(O)c1-c1ccccc1` [Compound 136], for which the “activity: Ratio between the % of control” value in experiment [1] is 488%. For the same compound, the “Activity (table III): Concentration” value in experiment [2] was “** (^++ or **concentration of compound (I) ≦10 micro Molar)”.
Take `O=c1[nH]c2sc(Cl)c(-c3ccc4ccccc4c3)c2c(O)c1-c1ccccc1` [Compound 137]: the “activity: Ratio between the % of control” value in experiment [1] was determined as 129%. Besides, the “Activity (table III): Concentration” value in experiment [2] is recorded as “* (^+ or *concentration of compound (I) >10 micro Molar)”.
As to `O=c1[nH]c2sc(Cl)c(-c3ccc(O)cc3)c2c(O)c1-c1ccccc1` [Compound 138], in experiment [1], the “activity: Ratio between the % of control” value is on record as 114%. Further, in experiment [2], the “Activity (table III): Concentration” value is reported as “** (^++ or **concentration of compound (I) ≦10 micro Molar)”.
Take `COc1ccc(-c2c(Cl)sc3[nH]c(=O)c(-c4ccccc4)c(O)c23)cc1` [Compound 139]: the “activity: Ratio between the % of control” value in experiment [1] is on record as 114%. Further, the “Activity (table III): Concentration” value in experiment [2] is given as “** (^++ or **concentration of compound (I) ≦10 micro Molar)”.
As for `O=c1[nH]c2sc(Cl)c(-c3ccc(F)cc3)c2c(O)c1-c1ccccc1` [Compound 140], in experiment [1], the “activity: Ratio between the % of control” value worked out at 123%. Besides, the “Activity (table III): Concentration” value in experiment [2] is on record as “** (^++ or **concentration of compound (I) ≦10 micro Molar)”.
As for `O=c1[nH]c2sc(Cl)c(-c3ccccc3)c2c(O)c1-c1cccc(C(F)(F)F)c1` [Compound 143], the “activity: Ratio between the % of control” value in experiment [1] is reported as 99%. In addition, the “Activity (table III): Concentration” value in experiment [2] is recorded as “* (^+ or *concentration of compound (I) >10 micro Molar)”.
`O=c1[nH]c2sc(Cl)c(-c3ccccc3)c2c(O)c1-c1cccc(O)c1` [Compound 148]: in experiment [1], the “activity: Ratio between the % of control” value amounted to 121%. Moreover, the “Activity (table III): Concentration” value in experiment [2] is listed as “** (^++ or **concentration of compound (I) ≦10 micro Molar)”.
